{"source": "patent US10208078B1", "about": "(SHAANXI UNIVERSITY OF SCIENCE AND TECHNOLOGY, priority 2018, dated 2019)", "assay": "DPPH radical scavenging activity assay", "format": "biochemical", "parameters": "Scavenging activity (%): unit of the concentration uncertain", "conditions": "for Scavenging activity (%): 0.2 mmol/L DPPH, 30 minutes room temperature in dark, absorbance at 517 nm", "text": "2,2-Diphenyl-1-picryl hydrazyl (DPPH) is an organic compound composed of a stable organic radical. In the DPPH molecule, due to the presence of multiple electron-withdrawing —NO2 and large π bonds of the benzene ring, nitrogen free radical is stabilized. Its methanol solution is purple and has a maximum absorption peak at 517 nm. After the addition of an antioxidant, DPPH captures an electron to be paired with the free electron, and the purple fades and turns into a yellow substance. The absorption at 517 nm disappears, and the degree of fading is quantitatively related to the number of electrons it captures. Based on this principle, a spectrophotometer is used to detect the change of the absorbance of the DPPH radical and the sample solution, and the ability of the sample to provide hydrogen atoms and scavenge free radicals can be measured.\nPreparation of DPPH solution: measuring exact amount of 2,2-diphenyl-1-picryl hydrazyl (DPPH) and dissolving in methanol to prepare a 0.2 mmol/L DPPH solution, stored at 0° C. in dark.\nMeasuring the scavenging activity of the sample solutions:\n2 mL of the sample solutions at each concentration gradient was taken, 2 mL 0.2 mmol/L DPPH solution was added, the mixture was mixed and reacted at room temperature in dark for 30 minutes, and methanol was then added to adjust final volume. The absorbance Ai was measured at 517 nm. 2 mL control solution and 2 mL methanol were mixed, and the absorbance Aj was measured. 2 mL DPPH solution and 2 mL methanol were mixed, and the absorbance A0 was measured. The scavenging activity of the sample solution and control solutions is calculated according to the following calculation formula. Scavenging activity (%)=100×[1−(Ai−Aj)/A0]\nIn FIG. 1, the X axis represents the concentrations (PPM) of the sample and control solutions, and the Y axis represents the scavenging activity.", "key": {"[1]": {"conditions": "concentration 6.89 (unit uncertain)"}, "[2]": {"conditions": "concentration 68.9 (unit uncertain)"}, "[3]": {"conditions": "concentration 172 (unit uncertain)"}, "[4]": {"conditions": "concentration 689 (unit uncertain)"}, "[5]": {"conditions": "concentration 1724 (unit uncertain)"}, "[6]": {"conditions": "concentration 6890 (unit uncertain)"}, "[7]": {"conditions": "concentration 8620 (unit uncertain)"}}, "data": [{"smiles": "O=C(O)CCSCCC(=O)O", "note": "[Thiodipropionic acid, 3,3′-thiodipropionic acid]", "values": [{"measurement": "Scavenging activity (%)", "setting": "[1]", "result": 1.13, "unit": "%"}, {"measurement": "Scavenging activity (%)", "setting": "[2]", "result": 3.84, "unit": "%"}, {"measurement": "Scavenging activity (%)", "setting": "[3]", "result": 4.64, "unit": "%"}, {"measurement": "Scavenging activity (%)", "setting": "[4]", "result": 5.20, "unit": "%"}, {"measurement": "Scavenging activity (%)", "setting": "[5]", "result": 5.43, "unit": "%"}, {"measurement": "Scavenging activity (%)", "setting": "[6]", "result": 6.33, "unit": "%"}, {"measurement": "Scavenging activity (%)", "setting": "[7]", "result": 6.57, "unit": "%"}]}, {"smiles": "O=C1O[C@H]([C@@H](O)CO)C(O)=C1O", "note": "[Vitamin C, vitamin C]", "values": [{"measurement": "Scavenging activity (%)", "setting": "[1]", "result": 53.40, "unit": "%"}, {"measurement": "Scavenging activity (%)", "setting": "[2]", "result": 96.15, "unit": "%"}, {"measurement": "Scavenging activity (%)", "setting": "[3]", "result": 96.28, "unit": "%"}, {"measurement": "Scavenging activity (%)", "setting": "[4]", "result": 96.79, "unit": "%"}, {"measurement": "Scavenging activity (%)", "setting": "[5]", "result": 96.79, "unit": "%"}, {"measurement": "Scavenging activity (%)", "setting": "[6]", "result": 97.18, "unit": "%"}, {"measurement": "Scavenging activity (%)", "setting": "[7]", "result": 97.43, "unit": "%"}]}, {"smiles": "O=C(CCSCCC(=O)OCC1OC(Oc2cc3ccc(=O)oc3cc2O)C(O)C(O)C1O)OCC1OC(Oc2cc3ccc(=O)oc3cc2O)C(O)C(O)C1O", "note": "(stereo not shown) [Aesculin thiodipropionic acid ester, aesculin thiodipropionic acid ester]", "values": [{"measurement": "free radical clearance rate", "setting": "achieved at a lower concentration than aesculin, thiodipropionic acid and their mixture", "result": "more than 90%"}, {"measurement": "Scavenging activity (%)", "setting": "[1]", "result": 7.60, "unit": "%"}, {"measurement": "Scavenging activity (%)", "setting": "[2]", "result": 37.08, "unit": "%"}, {"measurement": "Scavenging activity (%)", "setting": "[3]", "result": 58.91, "unit": "%"}, {"measurement": "Scavenging activity (%)", "setting": "[4]", "result": 77.78, "unit": "%"}, {"measurement": "Scavenging activity (%)", "setting": "[5]", "result": 90.95, "unit": "%"}, {"measurement": "Scavenging activity (%)", "setting": "[6]", "result": 94.83, "unit": "%"}, {"measurement": "Scavenging activity (%)", "setting": "[7]", "result": 96.12, "unit": "%"}]}]}
